According to patent publication US6355799B1, “Substituted benzene compounds, process for their preparation, and herbicidal and defoliant compositions containing them” (ISK Americas Incorporated, priority 1997, dated 2002):

Legend:
Assay type in all cases: in vivo
[1] = test system: large crabgrass (Digitaria sanguinalis, DIGSA); assay: Post-emerge test, greenhouse herbicide activity screening; conditions: post-emerge, 14 days after application, rating scale 0-100
Method in brief: (§1)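 Compounds in acetone were track-sprayed at 15–1000 g ai/ha: pre-emergence onto soil sown the previous day, then top-watered to incorporate and later bottom-watered; post-emergence onto 2–3 leaf plants with 0.25% v/v surfactant, bottom-watered only. Ratings on a 0–100 phytotoxicity scale were taken at day 14.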

[2] = test system: sicklepod (Cassia obtusifolia, CASOB); assay: as above; conditions: post-emerge, 14 days after application, rating scale 0-100
Method in brief: as §1

[3] = test system: lambsquarters (Chenopodium album, CHEAL); assay: as above; conditions: post-emerge, 14 days after application, rating scale 0-100
Method in brief: as §1

[4] = test system: green foxtail (Setaria viridis, SETVI); assay: as above; conditions: post-emerge, 14 days after application, rating scale 0-100
Method in brief: as §1

[5] = test system: ivyleaf morningglory (Ipomoea hederacea, IPOHE); assay: as above; conditions: post-emerge, 14 days after application, rating scale 0-100
Method in brief: as §1

[6] = test system: johnsongrass (Sorghum halepense, SORHA); assay: as above; conditions: post-emerge, 14 days after application, rating scale 0-100
Method in brief: as §1

[7] = test system: redroot pigweed (Amaranthus retroflexus, AMARE); assay: as above; conditions: post-emerge, 14 days after application
Method in brief: as §1

[8] = test system: velvetleaf (Abutilon theophrasti, ABUTH); assay: as above; conditions: post-emerge, 14 days after application, rating scale 0-100
Method in brief: as §1

[9] = test system: barnyardgrass (Echinochloa crus-galli, ECHCG); assay: as above; conditions: post-emerge, 14 days after application, rating scale 0-100
Method in brief: as §1

[10] = test system: large crabgrass (Digitaria sanguinalis, DIGSA); assay: Pre-emerge test, greenhouse herbicide activity screening; conditions: pre-emerge, 14 days after application, rating scale 0-100
Method in brief: (§2)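 Plants grown in 10 cm pots of sandy loam mix received acetone-dissolved compounds through a moving flat-fan nozzle. Doses ranged from 15 to 1000 g ai/ha. Pre-emerge pots were seeded one day earlier, post-emerge pots 8–21 days earlier. Fourteen days on, each pot was graded 0–100 for damage.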

[11] = test system: sicklepod (Cassia obtusifolia, CASOB); assay: as above; conditions: pre-emerge, 14 days after application, rating scale 0-100
Method in brief: as §2

[12] = test system: lambsquarters (Chenopodium album, CHEAL); assay: as above; conditions: pre-emerge, 14 days after application, rating scale 0-100
Method in brief: as §2

[13] = test system: green foxtail (Setaria viridis, SETVI); assay: as above; conditions: pre-emerge, 14 days after application, rating scale 0-100
Method in brief: as §2

[14] = test system: ivyleaf morningglory (Ipomoea hederacea, IPOHE); assay: as above; conditions: pre-emerge, 14 days after application, rating scale 0-100
Method in brief: as §2

[15] = test system: johnsongrass (Sorghum halepense, SORHA); assay: as above; conditions: pre-emerge, 14 days after application, rating scale 0-100
Method in brief: as §2

[16] = test system: velvetleaf (Abutilon theophrasti, ABUTH); assay: as above; conditions: pre-emerge, 14 days after application, rating scale 0-100
Method in brief: as §2

[17] = test system: barnyardgrass (Echinochloa crus-galli, ECHCG); assay: as above; conditions: pre-emerge, 14 days after application, rating scale 0-100
Method in brief: as §2

[18] = test system: upland rice (Oryza sp., var. Tebonnet, RICE); assay: Pre-emerge test, crop safety; conditions: pre-emerge, 14 days after application, rating scale 0-100
Method in brief: (§3)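 Applied at 15–1000 g ai/ha from acetone in 187 l/ha spray volume. Post-emergence applications included 0.25% v/v non-ionic surfactant and reached plants sown 8–21 days before. Pre-emergence applications were incorporated by surface watering. Efficacy or crop damage was rated on a 0–100 scale after 14 days.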

[19] = test system: field corn (Zea mays L., var. Dekalb 535, CORN); assay: Pre-emerge test, crop safety; conditions: pre-emerge, 14 days after application, rating scale 0-100
Method in brief: as §3

[20] = test system: redroot pigweed (Amaranthus retroflexus, AMARE); assay: Pre-emerge test, greenhouse herbicide activity screening; conditions: pre-emerge, 14 days after application, rating scale 0-100
Method in brief: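 Sandy loam pots; pre-emerge: sown 1 d pre-spray, surface-watered after, then bottom-watered. Post-emerge: sown 8–21 d before, 2–3 leaf stage, + 0.25% v/v NIS, bottom-watered. Acetone, 187 l/ha track spray, 15–1000 g ai/ha. 0–100 injury score, day 14.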

[21] = test system: upland rice (Oryza sp., var. Tebonnet, RICE); assay: Post-emerge test, crop safety; conditions: post-emerge, 14 days after application, rating scale 0-100
Method in brief: (§4)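 Each test used a mechanized track sprayer delivering 187 l/ha of acetone solution at 15–1000 g ai/ha. Post-emerge foliage at 2–3 leaves was treated with added 0.25% v/v non-ionic surfactant and bottom-watered only. Injury was assessed on day 14, where 100 means total kill.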

[22] = test system: field corn (Zea mays L., var. Dekalb 535, CORN); assay: Post-emerge test, crop safety; conditions: post-emerge, 14 days after application, rating scale 0-100
Method in brief: as §4

## Cn1c(C(F)(F)F)cc(=O)n(-c2ccc(Cl)cc2/C=C/c2ccc3ccccc3c2)c1=O [14-59]
[1]; 63 g ai/ha
  Post-emerge Herbicidal Activity DIGSA (phytotoxicity rating): 0
[1]; 250 g ai/ha
  Post-emerge Herbicidal Activity DIGSA (phytotoxicity rating): 0
[2]; 63 g ai/ha
  Post-emerge Herbicidal Activity CASOB (phytotoxicity rating): 0
[2]; 250 g ai/ha
  Post-emerge Herbicidal Activity CASOB (phytotoxicity rating): 10
[3]; 63 g ai/ha
  Post-emerge Herbicidal Activity CHEAL (phytotoxicity rating): 10
[3]; 250 g ai/ha
  Post-emerge Herbicidal Activity CHEAL (phytotoxicity rating): 10
[4]; 63 g ai/ha
  Post-emerge Herbicidal Activity SETVI (phytotoxicity rating): 0
[4]; 250 g ai/ha
  Post-emerge Herbicidal Activity SETVI (phytotoxicity rating): 0
[5]; 63 g ai/ha
  Post-emerge Herbicidal Activity IPOHE (phytotoxicity rating): 30
[5]; 250 g ai/ha
  Post-emerge Herbicidal Activity IPOHE (phytotoxicity rating): 30
[6]; 63 g ai/ha
  Post-emerge Herbicidal Activity SORHA (phytotoxicity rating): 0
[6]; 250 g ai/ha
  Post-emerge Herbicidal Activity SORHA (phytotoxicity rating): 0
[7]; 63 g ai/ha, rating scale 0-100 (0 no damage, 100 complete death)
  Post-emerge Herbicidal Activity AMARE (phytotoxicity rating): 20
[7]; 250 g ai/ha, rating scale 0-100
  Post-emerge Herbicidal Activity AMARE (phytotoxicity rating): 20
[8]; 63 g ai/ha
  Post-emerge Herbicidal Activity ABUTH (phytotoxicity rating): 50
[8]; 250 g ai/ha
  Post-emerge Herbicidal Activity ABUTH (phytotoxicity rating): 30
[9]; 63 g ai/ha
  Post-emerge Herbicidal Activity ECHCG (phytotoxicity rating): 0
[9]; 250 g ai/ha
  Post-emerge Herbicidal Activity ECHCG (phytotoxicity rating): 0
[10]; 63 g ai/ha
  phytotoxicity rating DIGSA: 0
[10]; 250 g ai/ha
  phytotoxicity rating DIGSA: 0
[11]; 63 g ai/ha
  phytotoxicity rating CASOB: 0
[11]; 250 g ai/ha
  phytotoxicity rating CASOB: 0
[12]; 63 g ai/ha
  phytotoxicity rating CHEAL: 40
[12]; 250 g ai/ha
  phytotoxicity rating CHEAL: 0
[13]; 63 g ai/ha
  phytotoxicity rating SETVI: 0
[13]; 250 g ai/ha
  phytotoxicity rating SETVI: 0
[14]; 63 g ai/ha
  phytotoxicity rating IPOHE: 0
[14]; 250 g ai/ha
  phytotoxicity rating IPOHE: 0
[15]; 63 g ai/ha
  phytotoxicity rating SORHA: 0
[15]; 250 g ai/ha
  phytotoxicity rating SORHA: 0
[16]; 63 g ai/ha
  phytotoxicity rating ABUTH: 0
[16]; 250 g ai/ha
  phytotoxicity rating ABUTH: 0
[17]; 63 g ai/ha
  phytotoxicity rating ECHCG: 0
[17]; 250 g ai/ha
  phytotoxicity rating ECHCG: 0
[18]; 63 g ai/ha
  phytotoxicity rating RICE: 0
[18]; 250 g ai/ha
  phytotoxicity rating RICE: 0
[19]; 63 g ai/ha
  phytotoxicity rating CORN: 0
[19]; 250 g ai/ha
  phytotoxicity rating CORN: 0
[20]; 63 g ai/ha
  phytotoxicity rating AMARE: 0
[20]; 250 g ai/ha
  phytotoxicity rating AMARE: 0
[21]; 63 g ai/ha
  Post-emerge Herbicidal Activity RICE (crop damage rating): 0
[21]; 250 g ai/ha
  Post-emerge Herbicidal Activity RICE (crop damage rating): 0
[22]; 63 g ai/ha
  Post-emerge Herbicidal Activity CORN (crop damage rating): 0
[22]; 250 g ai/ha
  Post-emerge Herbicidal Activity CORN (crop damage rating): 0
